One molecule from patent publication EP3165218A1, “WATER DISPERSIBLE GRANULATES CONTAINING OXIDIZED OR REDUCED FORMS OF COENZYME Q10” (INDENA S.p.A., priority 2015, dated 2017) can be followed below.

This data set can be described thus: Water dispersability, visual evaluation. The note with it: quantity corresponding to 50 mg of Coenzyme Q10 in about 40 ml of tap water at room temperature; evaluated visually. The class given is physicochemical. As for the experimental part: The water dispersability of the granulate of the invention was evaluated visually in comparison with unformulated Coenzyme Q10 administered as crystal powder. A quantity of the granulate of the invention corresponding to 50 mg of Coenzyme Q10 was dispersed in about 40 ml of tap water at room temperature. The product formed a very fine and homogeneous cloudy dispersion under mild agitation and no precipitation occurred.

`COC1=C(OC)C(=O)C(C/C=C(\C)CC/C=C(\C)CC/C=C(\C)CC/C=C(\C)CC/C=C(\C)CC/C=C(\C)CC/C=C(\C)CC/C=C(\C)CC/C=C(\C)CCC=C(C)C)=C(C)C1=O` [crystalline Coenzyme Q10, Coenzyme Q10]: the water dispersability entry is “the powder remained on the surface of water”.
